In the NIST ThermoML archive (doi:10.1021/acs.jced.8b00521):

Assay: xn = mol fraction of the nth substance listed
Settings: Liquid; for viscosity: Capillary tube (Ostwald / Ubbelohde) method; for mass density: Vibrating tube method

CCCCCCCC(=O)OCC [ethyl octanoate] + CCCCCCCCCCCC(=O)OC
Settings	mass density [kg/m3]	viscosity [mPa·s]
303.15 K, 100 kPa, x2 = 0.1	859	1.41
303.15 K, 100 kPa, x2 = 0.1999	859	1.52
303.15 K, 100 kPa, x2 = 0.3001	859	1.61
303.15 K, 100 kPa, x2 = 0.4	860	1.71
303.15 K, 100 kPa, x2 = 0.4999	860	1.82
303.15 K, 100 kPa, x2 = 0.6001	860	1.96
303.15 K, 100 kPa, x2 = 0.6999	861	2.08
303.15 K, 100 kPa, x2 = 0.8001	861	2.19
303.15 K, 100 kPa, x2 = 0.9	862	2.32
303.15 K, 2940 kPa, x2 = 0.4999	862	1.9
303.15 K, 2960 kPa, x2 = 0.1	860	1.46
303.15 K, 2960 kPa, x2 = 0.3001	861	1.66
303.15 K, 2980 kPa, x2 = 0.1999	860	1.56
303.15 K, 2980 kPa, x2 = 0.4	861	1.75
303.15 K, 2990 kPa, x2 = 0.6001	862	2.05
303.15 K, 2990 kPa, x2 = 0.9	863	2.4
303.15 K, 3000 kPa, x2 = 0.8001	863	2.28
303.15 K, 3080 kPa, x2 = 0.6999	862	2.15
303.15 K, 5980 kPa, x2 = 0.8001	865	2.37
303.15 K, 6000 kPa, x2 = 0.4999	863	1.96
303.15 K, 6010 kPa, x2 = 0.1	861	1.51
303.15 K, 6020 kPa, x2 = 0.6001	864	2.12
303.15 K, 6030 kPa, x2 = 0.1999	862	1.6
303.15 K, 6040 kPa, x2 = 0.6999	864	2.24
303.15 K, 6060 kPa, x2 = 0.9	865	2.48
303.15 K, 6080 kPa, x2 = 0.3001	863	1.71
303.15 K, 6100 kPa, x2 = 0.4	863	1.82
303.15 K, 8950 kPa, x2 = 0.8001	867	2.44
303.15 K, 8980 kPa, x2 = 0.1999	863	1.66
303.15 K, 8980 kPa, x2 = 0.3001	864	1.78
303.15 K, 8990 kPa, x2 = 0.4	865	1.88
303.15 K, 8990 kPa, x2 = 0.9	868	2.56
303.15 K, 9030 kPa, x2 = 0.1	863	1.55
303.15 K, 9040 kPa, x2 = 0.6999	866	2.31
303.15 K, 9050 kPa, x2 = 0.6001	866	2.19
303.15 K, 9090 kPa, x2 = 0.4999	865	2.02
303.15 K, 11960 kPa, x2 = 0.6999	868	2.38
303.15 K, 11960 kPa, x2 = 0.8001	869	2.5
303.15 K, 11980 kPa, x2 = 0.1	864	1.59
303.15 K, 12000 kPa, x2 = 0.3001	866	1.83
303.15 K, 12010 kPa, x2 = 0.6001	867	2.24
303.15 K, 12020 kPa, x2 = 0.1999	865	1.7
303.15 K, 12020 kPa, x2 = 0.4999	867	2.08
303.15 K, 12030 kPa, x2 = 0.9	869	2.64
303.15 K, 12040 kPa, x2 = 0.4	866	1.94
303.15 K, 14940 kPa, x2 = 0.6001	869	2.3
303.15 K, 14970 kPa, x2 = 0.6999	870	2.44
303.15 K, 14970 kPa, x2 = 0.8001	870	2.56
303.15 K, 14980 kPa, x2 = 0.9	871	2.7
303.15 K, 15020 kPa, x2 = 0.1	866	1.64
303.15 K, 15040 kPa, x2 = 0.4999	868	2.13
303.15 K, 15070 kPa, x2 = 0.1999	867	1.75
303.15 K, 15070 kPa, x2 = 0.3001	867	1.88
303.15 K, 15080 kPa, x2 = 0.4	868	2
313.15 K, 100 kPa, x2 = 0.1	850	1.22
313.15 K, 100 kPa, x2 = 0.1999	850	1.31
313.15 K, 100 kPa, x2 = 0.3001	851	1.39
313.15 K, 100 kPa, x2 = 0.4	851	1.46
313.15 K, 100 kPa, x2 = 0.4999	851	1.55
313.15 K, 100 kPa, x2 = 0.6001	852	1.65
313.15 K, 100 kPa, x2 = 0.6999	852	1.75
313.15 K, 100 kPa, x2 = 0.8001	852	1.85
313.15 K, 100 kPa, x2 = 0.9	853	1.95
313.15 K, 2950 kPa, x2 = 0.6001	853	1.71
313.15 K, 2960 kPa, x2 = 0.8001	854	1.93
313.15 K, 2970 kPa, x2 = 0.6999	854	1.82
313.15 K, 2980 kPa, x2 = 0.1	851	1.25
313.15 K, 2980 kPa, x2 = 0.1999	852	1.34
313.15 K, 2990 kPa, x2 = 0.3001	852	1.43
313.15 K, 3030 kPa, x2 = 0.4	853	1.52
313.15 K, 3040 kPa, x2 = 0.4999	853	1.59
313.15 K, 3070 kPa, x2 = 0.9	855	2.03
313.15 K, 5960 kPa, x2 = 0.3001	854	1.48
313.15 K, 5990 kPa, x2 = 0.6999	856	1.89
313.15 K, 5990 kPa, x2 = 0.8001	856	1.99
313.15 K, 6000 kPa, x2 = 0.1	853	1.29
313.15 K, 6000 kPa, x2 = 0.1999	854	1.38
313.15 K, 6000 kPa, x2 = 0.6001	855	1.76
313.15 K, 6050 kPa, x2 = 0.4	854	1.56
313.15 K, 6090 kPa, x2 = 0.9	857	2.09
313.15 K, 6100 kPa, x2 = 0.4999	855	1.65
313.15 K, 8900 kPa, x2 = 0.1	855	1.33
313.15 K, 8900 kPa, x2 = 0.1999	855	1.42
313.15 K, 8960 kPa, x2 = 0.6999	858	1.93
313.15 K, 9000 kPa, x2 = 0.6001	857	1.81
313.15 K, 9010 kPa, x2 = 0.4	856	1.59
313.15 K, 9010 kPa, x2 = 0.9	859	2.15
313.15 K, 9030 kPa, x2 = 0.3001	855	1.52
313.15 K, 9030 kPa, x2 = 0.8001	858	2.06
313.15 K, 9050 kPa, x2 = 0.4999	857	1.7
313.15 K, 11910 kPa, x2 = 0.6001	859	1.87
313.15 K, 11950 kPa, x2 = 0.4	858	1.63
313.15 K, 11980 kPa, x2 = 0.3001	857	1.57
313.15 K, 12010 kPa, x2 = 0.1	856	1.37
313.15 K, 12010 kPa, x2 = 0.1999	856	1.47
313.15 K, 12010 kPa, x2 = 0.8001	860	2.11
313.15 K, 12020 kPa, x2 = 0.4999	858	1.74
313.15 K, 12070 kPa, x2 = 0.9	860	2.22
313.15 K, 12090 kPa, x2 = 0.6999	860	1.99
313.15 K, 14970 kPa, x2 = 0.8001	862	2.16
313.15 K, 14980 kPa, x2 = 0.6999	861	2.03
313.15 K, 15010 kPa, x2 = 0.6001	861	1.92
313.15 K, 15020 kPa, x2 = 0.3001	859	1.62
313.15 K, 15040 kPa, x2 = 0.4999	860	1.79
313.15 K, 15050 kPa, x2 = 0.1	858	1.41
313.15 K, 15050 kPa, x2 = 0.1999	858	1.51
313.15 K, 15050 kPa, x2 = 0.9	862	2.28
313.15 K, 15090 kPa, x2 = 0.4	859	1.69
323.15 K, 100 kPa, x2 = 0.1	841	1.03
323.15 K, 100 kPa, x2 = 0.1999	842	1.09
323.15 K, 100 kPa, x2 = 0.3001	842	1.13
323.15 K, 100 kPa, x2 = 0.4	843	1.19
323.15 K, 100 kPa, x2 = 0.4999	843	1.26
323.15 K, 100 kPa, x2 = 0.6001	843	1.33
323.15 K, 100 kPa, x2 = 0.6999	844	1.42
323.15 K, 100 kPa, x2 = 0.8001	844	1.51
323.15 K, 100 kPa, x2 = 0.9	844	1.61
323.15 K, 2930 kPa, x2 = 0.1	843	1.04
323.15 K, 2930 kPa, x2 = 0.1999	843	1.11
323.15 K, 2940 kPa, x2 = 0.3001	844	1.18
323.15 K, 2960 kPa, x2 = 0.6999	845	1.45
323.15 K, 2980 kPa, x2 = 0.6001	845	1.38
323.15 K, 3010 kPa, x2 = 0.4999	844	1.31
323.15 K, 3020 kPa, x2 = 0.4	844	1.24
323.15 K, 3020 kPa, x2 = 0.9	846	1.65
323.15 K, 3040 kPa, x2 = 0.8001	846	1.57
323.15 K, 6010 kPa, x2 = 0.8001	848	1.61
323.15 K, 6020 kPa, x2 = 0.3001	845	1.22
323.15 K, 6030 kPa, x2 = 0.4999	846	1.35
323.15 K, 6030 kPa, x2 = 0.6999	847	1.5
323.15 K, 6040 kPa, x2 = 0.6001	847	1.42
323.15 K, 6060 kPa, x2 = 0.1	844	1.08
323.15 K, 6060 kPa, x2 = 0.1999	845	1.15
323.15 K, 6080 kPa, x2 = 0.4	846	1.29
323.15 K, 6080 kPa, x2 = 0.9	849	1.7
323.15 K, 8930 kPa, x2 = 0.6999	849	1.56
323.15 K, 8980 kPa, x2 = 0.8001	850	1.67
323.15 K, 8980 kPa, x2 = 0.9	850	1.75
323.15 K, 9030 kPa, x2 = 0.6001	849	1.46
323.15 K, 9040 kPa, x2 = 0.1	846	1.11
323.15 K, 9070 kPa, x2 = 0.3001	847	1.26
323.15 K, 9070 kPa, x2 = 0.4999	848	1.39
323.15 K, 9090 kPa, x2 = 0.4	847	1.32
323.15 K, 9140 kPa, x2 = 0.1999	847	1.19
323.15 K, 11900 kPa, x2 = 0.4	849	1.36
323.15 K, 11960 kPa, x2 = 0.6001	850	1.5
323.15 K, 11970 kPa, x2 = 0.4999	850	1.43
323.15 K, 11990 kPa, x2 = 0.3001	849	1.29
323.15 K, 11990 kPa, x2 = 0.8001	852	1.72
323.15 K, 12000 kPa, x2 = 0.9	852	1.79
323.15 K, 12020 kPa, x2 = 0.1	847	1.14
323.15 K, 12020 kPa, x2 = 0.1999	848	1.22
323.15 K, 12060 kPa, x2 = 0.6999	851	1.6
323.15 K, 14960 kPa, x2 = 0.6001	852	1.55
323.15 K, 14960 kPa, x2 = 0.9	854	1.85
323.15 K, 14970 kPa, x2 = 0.8001	853	1.76
323.15 K, 14980 kPa, x2 = 0.6999	853	1.65
323.15 K, 14990 kPa, x2 = 0.1	849	1.18
323.15 K, 14990 kPa, x2 = 0.1999	850	1.26
323.15 K, 15010 kPa, x2 = 0.4	851	1.4
323.15 K, 15020 kPa, x2 = 0.3001	850	1.33
323.15 K, 15040 kPa, x2 = 0.4999	851	1.48
